Results on seven compounds are retold here after PMC6476959, “Novel 3,4-Dihydroisocoumarins Inhibit Human P-gp and BCRP in Multidrug Resistant Tumors and Demonstrate Substrate Inhibition of Yeast Pdr5” (Frontiers in Pharmacology, 2019).

In one data set the test system is A549 cells. Put plainly: CellTiter-Glo cell viability assay (cytotoxicity), A549. The conditions noted are these: Homo sapiens, A549; 48 h, mean ± SEM. The class given is cell-based, human. The method, then: (§1) The human lung adenocarcinoma cell line A549 was cultured in DMEM medium supplemented with 10% fetal bovine serum (FBS), 100 U/mL penicillin and 100 μg/mL streptomycin. P-gp-expressing human colon adenocarcinoma cells HCT-15 were cultured in RPMI 1640 medium supplemented with 10% FBS, 100 U/mL penicillin and 100 μg/mL streptomycin. BCRP-expressing MCF-7/MX human breast adenocarcinoma cells were cultured in DMEM medium supplemented with 10% FBS, 100 U/mL penicillin and 100 μg/mL streptomycin. MRP1-expressing H69AR human small cell lung cancer cells were cultured in RPMI 1640 medium (ATCC modification) supplemented with 20% FBS, 100 U/mL penicillin and 100 μg/mL streptomycin. All cancer cell lines employed have been systematically characterized regarding their respective ABC transporter expression profile ([Sachs et al., 2019]).
(§2) Cytotoxic activity of test compounds was analyzed after 48 h using the CellTiter-Glo Luminescent Cell Viability Assay published previously ([Weber et al., 2017]) in 384-well plates with the following cell densities: A549, MCF-7/MX: 2 × 10^3 cells/well; HCT-15: 3 × 10^3 cells/well; H69AR: 5 × 10^3 cells/well. Pipetting was conducted with the CyBi-Well 96-channel simultaneous pipettor (Analytik Jena AG, Jena, Germany). For generation of dose-response curves and calculation of IC50 values, the four-parameter logistic model was applied.
A general note: In ATP-based viability assays light output follows the ATP content of the culture.

The subject of the next data set is HCT-15 cells. Put plainly: CellTiter-Glo cell viability assay (cytotoxicity), HCT-15. The data set is classed as cell-based. The conditions noted are these: Homo sapiens, 48 h, P-gp expressing, mean ± SEM. As to the method: as §1, §2
A further data set concerns MCF-7/MX cells. Briefly: CellTiter-Glo cell viability assay (cytotoxicity), MCF-7/MX. The data set is classed as cell-based. The conditions noted are these: Homo sapiens, MCF7/MX; 48 h, BCRP-expressing, mean ± SEM. The method, then:
as §1, §2

A further data set concerns H69AR cells. Put plainly: CellTiter-Glo cell viability assay (cytotoxicity), H69AR. The class given is cell-based. The conditions noted are these: Homo sapiens, 48 h, MRP1-expressing, mean ± SEM. The method, then:
as §1, §2

In a further data set the target is T1, P-gp (Homo sapiens, UniProt P08183).
T1 construct: endogenous in cells; host or cells: HCT-15 human colon adenocarcinoma cells
Briefly: P-gp transport assay (calcein-AM) in HCT-15 cells. The class given is cell-based. As to the method:
The transport of calcein-AM by P-gp and its modulation by test compounds was analyzed in the P-gp-expressing HCT-15 cell line. 5 × 10^4 cells were seeded in black 96-well plates and incubated at 37°C and 5% CO2 for 24 h. The culture medium was removed and replaced by Hank’s balanced salt solution supplemented with 10 mM HEPES. Test compounds, 2.5 μM PSC833 (positive control) or 0.5% DMSO (negative control) were added in triplicates and incubated for 30 min at 37°C and 5% CO2. The substrate calcein-AM was added (final concentration 0.5 μM) and the fluorescence (excitation 485 nm, emission 520 nm) was measured over 3 h with the Infinite m1000 pro microplate reader (Tecan Group AG, Männedorf, Switzerland) at 37°C. The transport activity of P-gp was analyzed by determining the slope of the linear part of the fluorescence-time curve (0–30 min) using linear regression. Normalization of the data to PSC833 (100% inhibition) and DMSO (0% inhibition) was performed.

Another data set deals with T2, BCRP (Homo sapiens, UniProt Q9UNQ0).
T2 construct: endogenous in cells; host or cells: MCF-7/MX human breast adenocarcinoma cells (mitoxantrone-selected)
T2 sequence (Q9UNQ0 1-655): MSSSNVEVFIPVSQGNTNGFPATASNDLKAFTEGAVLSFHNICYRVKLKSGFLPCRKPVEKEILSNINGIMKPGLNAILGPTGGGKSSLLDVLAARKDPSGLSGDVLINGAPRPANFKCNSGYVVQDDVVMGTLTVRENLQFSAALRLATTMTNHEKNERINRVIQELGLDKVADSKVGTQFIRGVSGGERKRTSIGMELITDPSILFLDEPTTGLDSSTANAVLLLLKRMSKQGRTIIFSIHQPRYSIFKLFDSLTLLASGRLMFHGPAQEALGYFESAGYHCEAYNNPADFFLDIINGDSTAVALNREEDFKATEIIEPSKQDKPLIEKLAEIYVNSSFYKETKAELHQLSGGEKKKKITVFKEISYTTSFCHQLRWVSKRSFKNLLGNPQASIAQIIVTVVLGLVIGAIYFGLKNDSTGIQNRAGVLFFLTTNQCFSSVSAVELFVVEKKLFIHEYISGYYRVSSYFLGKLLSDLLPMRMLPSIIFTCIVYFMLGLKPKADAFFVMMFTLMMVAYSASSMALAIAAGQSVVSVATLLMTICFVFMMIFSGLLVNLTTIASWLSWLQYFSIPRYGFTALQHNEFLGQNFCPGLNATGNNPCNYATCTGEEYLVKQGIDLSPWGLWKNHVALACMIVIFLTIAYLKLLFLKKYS
Briefly: BCRP transport assay (Hoechst 33342) in MCF-7/MX cells. The class given is cell-based. As to the method:
Breast cancer resistance protein transport activity was determined in the BCRP-expressing MCF-7/MX cell line. Hoechst 33342 was applied as transporter substrate and 1 μM Ko143 as positive control or 0.5% DMSO as negative control and the assay was performed according to the P-gp assay. Fluorescence was measured at an excitation wavelength of 355 nm and emission wavelength of 460 nm. The transport activity of BCRP was analyzed by determining the plateau of the fluorescence-time curve by using non-linear regression (one-phase exponential fit). Normalization of the data to Ko143 (100% inhibition) and DMSO (0% inhibition) was performed.

Data set [1] has as its target T3, Pdr5 (Saccharomyces cerevisiae, UniProt P33302).
T3 construct: effect on (A) the transport activity of Pdr5 WT and (B) their effect on the ATPase activity; made in house; host or cells: S. cerevisiae YRE1001 (pdr1-3 background), isolated plasma membranes
Put plainly: Pdr5 transport assay (R6G) in plasma membrane preparations. The class given is biochemical. More on the design: R6G transport activity of Pdr5 WT inhibited to (initial screen): dose or concentration left out as unconfirmed. The conditions noted are these: for R6G transport activity of Pdr5 WT inhibited to (initial screen): relative to Pdr5 WT without compound. The method, then:
(§3) Saccharomyces cerevisiae cells expressing Pdr5 WT or the E1036Q (EQ) mutant were cultured to an OD600 of 1.5 in YPD-media at 25°C. The nitrogen source was replenished by addition of a 10th volume of 5x YP (50 g/l yeast extract, 100 g/l peptone). The cells were grown to an OD of 3.5 and harvested (5000 ×g at 4°C for 15 min). The isolation of Pdr5 containing PMs was performed as described ([Kolaczkowski et al., 1996]; [Ernst et al., 2008]).
Active transport of R6G was measured according to the protocol developed by [Kolaczkowski et al. (1996)], using a Tecan Infinite 200 pro reader (Tecan Group AG, Männedorf, Switzerland). 6 μg of the isolated PM containing Pdr5 were resuspended in 200 μl of the transport buffer (50 mM HEPES, pH 7.0, 5 mM MgCl2, 10 mM NaN3, and 150 nM R6G) and incubated in a black 96-well plate at 30°C. 5 μl of the test compound were added at the indicated concentrations. Active transport was initiated by the addition of 10 μl 200 mM ATP and fluorescence intensity was recorded in 15 s-intervals for 20 min (excitation wavelength at 524 nm, emission wavelength at 558 nm, number of flashes 30, integration time 2000 μs). IC50 determination was performed with a serial dilution of the test compounds.

Data set [2] deals with T3, Pdr5. Put plainly: Pdr5 ATPase assay (oligomycin-sensitive) in plasma membrane preparations. The data set is classed as biochemical. The conditions noted are these: highest concentrations (10 mM), in comparison to Pdr5 WT in the absence of any compound. The method, then:
as §3
Oligomycin (OM)-sensitive ATPase activity was measured from 0.8 μg PM containing Pdr5 incubated with 2 mM ATP, 5 mM MgCl2 in 270 mM TRIS-glycine buffer (pH 9.5) and 2.5 μl of the test compounds or DMSO as a control in a total volume of 100 μl. To reduce the background activities, 0.2 mM ammonium molybdate, 10 mM NaN3 and 50 mM KNO3, respectively, were added ([Dufour et al., 1988]; [Goffeau and Dufour, 1988]). In a second assay, OM (20 μg/ml) was added to an otherwise identical setup. After incubation at 30°C for 20 min, the reaction was stopped by adding 25 μl of the reaction to 175 μl 40 mM H2SO4. The amount of released inorganic phosphate was determined by a colometric assay in 96-well plates ([Goffeau and Dufour, 1988]; [Decottignies et al., 1994]; [Wada et al., 2002]). The difference of both assays ( ± OM) corresponds to the specific ATPase activity of Pdr5 ([Ernst et al., 2008]).

Setting [3] is: human, P-gp-expressing HCT-15 cells, probe calcein-AM (0.5 μM), normalized to 2.5 μM PSC833 (100%) and DMSO (0%), read-out: Relative inhibition of P-gp.

Values joined by “and” are separate entries in the source; they are usually repeats but may differ in a detail not shown here. Equal values may be shown once. “Also recorded” adds a separate entry of the source.

T3 sequence (P33302 whole entry): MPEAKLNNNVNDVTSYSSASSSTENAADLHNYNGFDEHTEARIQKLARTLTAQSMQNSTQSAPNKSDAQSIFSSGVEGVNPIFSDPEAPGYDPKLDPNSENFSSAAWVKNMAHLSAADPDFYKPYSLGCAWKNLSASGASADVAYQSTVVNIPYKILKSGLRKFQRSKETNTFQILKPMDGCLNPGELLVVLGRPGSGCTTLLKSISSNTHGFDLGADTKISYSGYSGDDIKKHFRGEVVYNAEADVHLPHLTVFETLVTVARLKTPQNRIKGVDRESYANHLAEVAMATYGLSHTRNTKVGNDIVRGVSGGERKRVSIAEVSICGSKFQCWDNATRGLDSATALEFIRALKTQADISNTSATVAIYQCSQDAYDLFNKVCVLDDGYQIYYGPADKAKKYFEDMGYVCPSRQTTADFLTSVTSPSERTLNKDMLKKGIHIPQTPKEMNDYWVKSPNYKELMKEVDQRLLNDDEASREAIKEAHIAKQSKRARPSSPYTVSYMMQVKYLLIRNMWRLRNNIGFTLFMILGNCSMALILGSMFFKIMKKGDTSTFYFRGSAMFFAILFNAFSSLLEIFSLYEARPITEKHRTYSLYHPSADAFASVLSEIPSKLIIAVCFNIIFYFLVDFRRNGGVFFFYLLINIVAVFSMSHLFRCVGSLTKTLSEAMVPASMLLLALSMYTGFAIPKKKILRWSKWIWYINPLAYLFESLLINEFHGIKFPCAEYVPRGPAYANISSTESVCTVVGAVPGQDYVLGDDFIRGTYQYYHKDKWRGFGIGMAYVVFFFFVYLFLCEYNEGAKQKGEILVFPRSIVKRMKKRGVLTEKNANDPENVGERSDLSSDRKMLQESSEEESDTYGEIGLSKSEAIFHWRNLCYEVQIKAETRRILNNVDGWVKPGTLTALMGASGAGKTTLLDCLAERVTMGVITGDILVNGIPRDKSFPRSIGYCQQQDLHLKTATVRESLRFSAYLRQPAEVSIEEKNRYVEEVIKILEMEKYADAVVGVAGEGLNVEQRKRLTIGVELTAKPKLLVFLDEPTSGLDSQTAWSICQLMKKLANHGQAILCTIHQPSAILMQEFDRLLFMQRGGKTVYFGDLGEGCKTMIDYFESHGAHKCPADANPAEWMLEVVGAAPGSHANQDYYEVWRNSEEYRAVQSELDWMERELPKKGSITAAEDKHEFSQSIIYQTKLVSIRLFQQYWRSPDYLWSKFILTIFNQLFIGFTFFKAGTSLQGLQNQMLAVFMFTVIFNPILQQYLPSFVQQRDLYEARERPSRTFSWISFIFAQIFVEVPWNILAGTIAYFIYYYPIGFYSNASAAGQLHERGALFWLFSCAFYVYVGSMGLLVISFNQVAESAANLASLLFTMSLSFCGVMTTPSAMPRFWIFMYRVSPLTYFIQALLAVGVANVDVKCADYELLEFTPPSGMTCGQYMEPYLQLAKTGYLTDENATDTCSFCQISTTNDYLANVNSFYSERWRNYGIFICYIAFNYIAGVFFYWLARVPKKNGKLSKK
T1 sequence (P08183 whole entry): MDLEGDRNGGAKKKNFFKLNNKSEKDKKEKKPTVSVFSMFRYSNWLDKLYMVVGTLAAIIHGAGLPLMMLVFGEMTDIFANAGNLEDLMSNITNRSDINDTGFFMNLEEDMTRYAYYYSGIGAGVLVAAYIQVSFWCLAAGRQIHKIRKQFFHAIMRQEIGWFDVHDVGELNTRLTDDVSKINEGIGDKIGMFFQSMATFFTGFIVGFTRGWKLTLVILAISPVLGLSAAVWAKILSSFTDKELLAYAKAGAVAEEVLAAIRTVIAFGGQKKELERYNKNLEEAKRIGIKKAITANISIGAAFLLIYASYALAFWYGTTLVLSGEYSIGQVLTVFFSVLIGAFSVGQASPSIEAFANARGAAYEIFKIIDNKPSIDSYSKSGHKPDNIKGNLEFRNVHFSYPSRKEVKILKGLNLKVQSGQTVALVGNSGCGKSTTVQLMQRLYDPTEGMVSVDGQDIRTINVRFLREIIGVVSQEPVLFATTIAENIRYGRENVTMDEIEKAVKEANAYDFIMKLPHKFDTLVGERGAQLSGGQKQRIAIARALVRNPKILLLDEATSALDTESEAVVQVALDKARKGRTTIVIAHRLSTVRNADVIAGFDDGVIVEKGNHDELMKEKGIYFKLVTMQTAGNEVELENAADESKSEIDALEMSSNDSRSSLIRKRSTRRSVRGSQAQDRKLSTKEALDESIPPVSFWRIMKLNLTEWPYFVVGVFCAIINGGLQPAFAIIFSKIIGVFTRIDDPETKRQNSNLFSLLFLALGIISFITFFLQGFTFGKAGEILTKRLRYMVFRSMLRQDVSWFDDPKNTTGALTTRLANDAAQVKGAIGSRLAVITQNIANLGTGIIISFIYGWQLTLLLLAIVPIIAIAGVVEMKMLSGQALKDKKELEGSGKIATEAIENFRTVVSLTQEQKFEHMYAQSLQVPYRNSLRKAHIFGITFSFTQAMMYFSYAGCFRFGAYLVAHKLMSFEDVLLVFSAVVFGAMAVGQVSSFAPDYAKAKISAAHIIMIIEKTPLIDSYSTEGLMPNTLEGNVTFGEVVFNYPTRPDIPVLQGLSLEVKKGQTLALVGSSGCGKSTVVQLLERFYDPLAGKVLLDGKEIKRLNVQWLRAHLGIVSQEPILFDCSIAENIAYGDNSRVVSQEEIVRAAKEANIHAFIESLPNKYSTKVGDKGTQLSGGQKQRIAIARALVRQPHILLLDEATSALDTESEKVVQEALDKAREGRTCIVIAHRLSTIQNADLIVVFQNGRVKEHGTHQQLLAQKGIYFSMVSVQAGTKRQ

On to `COc1cc(O)c2c(c1)C[C@@H](C)OC2=O` [6-Methoxymellein (3), 6-methoxymellein], for which the IC50 with A549 cells, with HCT-15 cells, in the data set on MCF-7/MX cells and in the data set on H69AR cells was over 100 µM in each case. Besides, the “Inhibition of P-gp (in words)” value on P-gp is “did not differ significantly from those of derivative 14”. Also, at BCRP, the “Inhibition of BCRP (in words)” value was “no inhibitory activity could be observed”. Also, the “R6G transport activity of Pdr5 WT inhibited to (initial screen)” value is “no effect” at Pdr5 [1] (listed as 3) and “did not interfere with Pdr5-mediated R6G transport” at Pdr5 [1] (listed as 6-methoxymellein (3)). Besides, the “ATPase activity of Pdr5 WT inhibited to (initial screen)” value (from here on “ATPase activity of Pdr5 WT inhibited”) on Pdr5 [2] (listed as 3) is listed as “nearly no effect”; at Pdr5 [2] (listed as 6-methoxymellein (3)), “no inhibitory effect”.
Take `COc1cc(O)c2c(c1)C[C@H](CCO[Si](C)(C)C(C)(C)C)OC2=O` [(R)-19]: the IC50 is 47.5 ± 3.2 µM with A549 cells; 57.1 ± 7.5 µM in the data set on HCT-15 cells; 28.1 ± 0.7 µM with MCF-7/MX cells; over 100 µM in the data set with H69AR cells; 26 ± 3.5 µM at Pdr5 [1]. The inhibition at 20 μM at P-gp (setting [3]) was over 20%. The “R6G transport activity of Pdr5 WT inhibited to (initial screen)” value on Pdr5 [1] is “inhibit the transport of R6G completely; also recorded: inhibit the transport activity of Pdr5 WT completely”.
For the compound `COc1cc(O)c2c(c1)C[C@H](CCO)OC2=O` [(R)-19a], the IC50 in the data set on A549 cells, in the data set on HCT-15 cells, with MCF-7/MX cells and with H69AR cells was over 100 µM throughout. The “Inhibition of BCRP (in words)” value at BCRP is “completely abolished inhibitory ability”. Moreover, the “ATPase activity of Pdr5 WT inhibited” value at Pdr5 [2] is “nearly no effect; also recorded: no inhibition of the ATPase activity was observed”.
For the compound `COc1cc(O)c2c(c1)C[C@@H](CCO[Si](C)(C)C(C)(C)C)OC2=O` [(S)-19], the IC50 with A549 cells was 42 ± 3.9 µM; with HCT-15 cells, over 100 µM; in the data set on MCF-7/MX cells, 33.5 ± 7.5 µM; with H69AR cells, 86.8 ± 9.2 µM; at Pdr5 [1], 5.3 ± 0.6 µM. On P-gp (human, P-gp-expressing HCT-15 cells, probe calcein-AM (0.5 μM), 10 μM, normalized to 2.5 μM PSC833 (100%) and DMSO (0%), read-out: Relative inhibition of P-gp), the inhibition at 10 μM was 37.1 ± 2.9%. Moreover, the inhibition at 20 μM on P-gp (setting [3]) was over 20%. Besides, the “R6G transport activity of Pdr5 WT inhibited to (initial screen)” value on Pdr5 [1] is “inhibit the transport of R6G completely; also recorded: inhibit the transport activity of Pdr5 WT completely”.
Regarding `COc1cc(O)c2c(c1)C[C@@H](CCO)OC2=O` [(S)-19a], the IC50 with A549 cells was over 100 µM; in the data set with HCT-15 cells, over 100 µM; with MCF-7/MX cells, 89.8 ± 4.9 µM; in the data set on H69AR cells, over 100 µM. For the same compound, the “Inhibition of BCRP (in words)” value at BCRP is “completely abolished inhibitory ability”. For the same compound, the “ATPase activity of Pdr5 WT inhibited” value at Pdr5 [2] was “nearly no effect; also recorded: no inhibition of the ATPase activity was observed”.
As to `COc1cc2c(c(OC)c1)C(=O)OCC2` [Compound 14a], the IC50 in the data set on A549 cells, in the data set on HCT-15 cells, with MCF-7/MX cells and in the data set on H69AR cells was over 100 µM each time. In addition, the “Relative inhibition of P-gp, span over the tested concentrations” value at P-gp (different concentrations, normalized to PSC833) is “up to 10%”. In addition, at BCRP, the “Inhibition of BCRP (in words)” value is listed as “did not inhibit BCRP”.
Consider `COc1cc(O)c2c(=O)oc3ccccc3c2c1` [Compound 21], for which the IC50 in the data set with A549 cells, in the data set on HCT-15 cells, in the data set on MCF-7/MX cells and in the data set with H69AR cells was over 50 µM throughout. The “Relative inhibition rate of P-gp” value on P-gp (highest concentration used) is given as 20.0 ± 1.2%. Also, at Pdr5 [2], the “ATPase activity of Pdr5 WT inhibited” value is 50% and 54%.

In general, IC50 refers to the midpoint of a concentration-inhibition curve. Usually inhibition stands for how much of the control response was suppressed.
